Laboratory results from the supplement of paper PMC10627819.

Key:
B. subtilis 168 [1] = experiment: fitness (endpoint OD595 vs no drug) (fraction); higher = more growth
Outline: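 Growth medium was TSB, LB Lennox or CY, and plates were kept at 37 °C. Inoculation was at OD595 0.01 in 384-well plates, at 30 µl per well or 55 µl for S. pneumoniae. OD595 was monitored every 30 min for 14 h and background-subtracted using the first reading. Fitness is the optical density on entering stationary phase divided by the robust mean of no-drug controls, with values capped at 1.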

B. subtilis 168 [2] = experiment: Bliss interaction score (quartile over a dose matrix) (fitness difference); higher = more antagonism (negative = synergy)
Outline: (§1)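 Quartiles of the Bliss score were taken over technical, biological and donor/recipient replicates. That score is observed fitness minus the product of the single-drug fitness values, which were inferred from combination data. Fitness itself is OD595 at entry into stationary phase divided by the plate's robust no-drug mean, with a cap at 1.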

S. aureus DSM 20231 = experiment: as above
Outline: as §1

S. aureus Newman = experiment: as above
Outline: as §1

S. pneumoniae D39V = experiment: as above
Outline: as §1
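Throughout, for Bliss interaction score (quartile over a dose matrix): first quartile when negative (synergy) and third quartile when positive (antagonism).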

CO[C@@H]1[C@@H](OC(N)=O)[C@@H](O)[C@H](Oc2ccc3c(O)c(NC(=O)c4ccc(O)c(CC=C(C)C)c4)c(=O)oc3c2C)OC1(C)C [Novobiocin] + COc1cc(Cc2cnc(N)nc2N)cc(OC)c1OC [Trimethoprim]
fitness, B. subtilis 168 [1]
Conditions	first compound 0.0125 µg/mL	first compound 0.025 µg/mL	first compound 0.05 µg/mL	first compound 0.1 µg/mL	first compound 0.2 µg/mL
partner 0.25 µg/mL	–	–	–	–	0.754
partner 0.5 µg/mL	0.566	0.525	0.502	0.492	0.554

B. subtilis 168 [1], one replicate
Conditions	fitness
first compound 0.0125 µg/mL, partner 1 µg/mL	0.471
first compound 0.0125 µg/mL, partner 2 µg/mL	0.386
first compound 0.025 µg/mL, partner 1 µg/mL	0.451
first compound 0.025 µg/mL, partner 2 µg/mL	0.386
first compound 0.05 µg/mL, partner 0.1 µg/mL	0.947
first compound 0.05 µg/mL, partner 0.125 µg/mL	0.759
first compound 0.05 µg/mL, partner 0.2 µg/mL	0.794
first compound 0.05 µg/mL, partner 0.4 µg/mL	0.546
first compound 0.05 µg/mL, partner 1 µg/mL	0.521
first compound 0.05 µg/mL, partner 2 µg/mL	0.354
first compound 0.1 µg/mL, partner 0.1 µg/mL	≥ 1
first compound 0.1 µg/mL, partner 0.125 µg/mL	0.77
first compound 0.1 µg/mL, partner 0.2 µg/mL	0.797
first compound 0.1 µg/mL, partner 0.4 µg/mL	0.52
first compound 0.125 µg/mL, partner 0.125 µg/mL	0.835
first compound 0.125 µg/mL, partner 0.25 µg/mL	0.56
first compound 0.125 µg/mL, partner 0.5 µg/mL	0.479
first compound 0.2 µg/mL, partner 0.1 µg/mL	0.978
first compound 0.2 µg/mL, partner 0.125 µg/mL	0.757
first compound 0.2 µg/mL, partner 0.2 µg/mL	0.826
first compound 0.2 µg/mL, partner 0.4 µg/mL	0.474
first compound 0.25 µg/mL, partner 0.125 µg/mL	0.565
first compound 0.25 µg/mL, partner 0.25 µg/mL	0.459
first compound 0.25 µg/mL, partner 0.5 µg/mL	0.45
first compound 0.5 µg/mL, partner 0.125 µg/mL	0.424
first compound 0.5 µg/mL, partner 0.25 µg/mL	0.376
first compound 0.5 µg/mL, partner 0.5 µg/mL	0.406

Conditions	Bliss interaction score
B. subtilis 168 [2]	0.136
S. aureus DSM 20231	0.134
S. aureus Newman	0.0627
S. pneumoniae D39V	0.0635

CC[C@H](C)[C@H](N)C1=N[C@H](C(=O)N[C@@H](CC(C)C)C(=O)N[C@H](CCC(=O)O)C(=O)N[C@H](C(=O)N[C@H]2CCCCNC(=O)[C@H](CC(N)=O)NC(=O)[C@@H](CC(=O)O)NC(=O)[C@H](Cc3cnc[nH]3)NC(=O)[C@@H](Cc3ccccc3)NC(=O)[C@H]([C@@H](C)CC)NC(=O)[C@@H](CCCN)NC2=O)[C@@H](C)CC)CS1 [Bacitracin] + COc1cc(Cc2cnc(N)nc2N)cc(OC)c1OC [Trimethoprim]
fitness, B. subtilis 168 [1], one replicate, main component drawn
Conditions	partner 0.1 µg/mL	partner 0.2 µg/mL	partner 0.4 µg/mL	partner 1 µg/mL	partner 2 µg/mL
first compound 37.5 µg/mL	0.925	0.65	0.508	0.462	0.24
first compound 75 µg/mL	0.898	0.715	0.532	0.441	0.235
first compound 150 µg/mL	0.875	0.71	0.499	0.348	0.219

fitness, B. subtilis 168 [1], main component drawn
Conditions	first compound 37.5 µg/mL	first compound 75 µg/mL	first compound 150 µg/mL
partner 0.125 µg/mL	0.615	0.593	0.338
partner 0.5 µg/mL	0.518	–	–

main component drawn
Conditions	Bliss interaction score
B. subtilis 168 [2]	0.0858
S. aureus DSM 20231	0.013
S. aureus Newman	-0.08
S. pneumoniae D39V	-0.0391

CC[C@H](C)[C@H](N)C1=N[C@H](C(=O)N[C@@H](CC(C)C)C(=O)N[C@H](CCC(=O)O)C(=O)N[C@H](C(=O)N[C@H]2CCCCNC(=O)[C@H](CC(N)=O)NC(=O)[C@@H](CC(=O)O)NC(=O)[C@H](Cc3cnc[nH]3)NC(=O)[C@@H](Cc3ccccc3)NC(=O)[C@H]([C@@H](C)CC)NC(=O)[C@@H](CCCN)NC2=O)[C@@H](C)CC)CS1 [Bacitracin] + CCC[C@@H]1C[C@@H](C(=O)N[C@@H]([C@H]2O[C@H](SC)[C@H](O)[C@@H](O)[C@H]2O)[C@@H](C)O)N(C)C1 [Lincomycin]
fitness, B. subtilis 168 [1], main component drawn
Conditions	first compound 37.5 µg/mL	first compound 75 µg/mL	first compound 150 µg/mL
partner 0.1 µg/mL	0.955	0.915	0.896
partner 0.2 µg/mL	0.919	0.832	0.733
partner 0.4 µg/mL	0.86	0.827	–

fitness, B. subtilis 168 [1], one replicate, main component drawn
Conditions	first compound 37.5 µg/mL	first compound 75 µg/mL	first compound 150 µg/mL
partner 0.8 µg/mL	0.764	0.74	0.389
partner 1.6 µg/mL	0.769	0.686	0.439

main component drawn
Conditions	Bliss interaction score
B. subtilis 168 [2]	0.0963
S. aureus DSM 20231	-0.046
S. aureus Newman	0.104
S. pneumoniae D39V	-0.0546

CC[C@H](C)[C@H](N)C1=N[C@H](C(=O)N[C@@H](CC(C)C)C(=O)N[C@H](CCC(=O)O)C(=O)N[C@H](C(=O)N[C@H]2CCCCNC(=O)[C@H](CC(N)=O)NC(=O)[C@@H](CC(=O)O)NC(=O)[C@H](Cc3cnc[nH]3)NC(=O)[C@@H](Cc3ccccc3)NC(=O)[C@H]([C@@H](C)CC)NC(=O)[C@@H](CCCN)NC2=O)[C@@H](C)CC)CS1 [Bacitracin] + CC(=O)NC[C@H]1CN(c2ccc(N3CCOCC3)c(F)c2)C(=O)O1 [Linezolid]
B. subtilis 168 [1], partner 0.0625 µg/mL, one replicate, main component drawn
Conditions	fitness
first compound 37.5 µg/mL	0.823
first compound 75 µg/mL	0.749
first compound 150 µg/mL	0.3

fitness, B. subtilis 168 [1], main component drawn
Conditions	first compound 37.5 µg/mL	first compound 75 µg/mL	first compound 150 µg/mL
partner 0.125 µg/mL	0.609	–	–
partner 0.25 µg/mL	–	0.13	0.0363
partner 0.5 µg/mL	0.0502	0.0304	0.0221

main component drawn
Conditions	Bliss interaction score
B. subtilis 168 [2]	-0.0832
S. aureus DSM 20231	-0.0504
S. aureus Newman	-0.087
S. pneumoniae D39V	-0.0719

CO[C@@H]1[C@@H](OC(N)=O)[C@@H](O)[C@H](Oc2ccc3c(O)c(NC(=O)c4ccc(O)c(CC=C(C)C)c4)c(=O)oc3c2C)OC1(C)C [Novobiocin] + CCN(CC)CCOC(=O)c1ccc(N)cc1 [Procaine]
fitness, B. subtilis 168 [1]
Conditions	first compound 0.0125 µg/mL	first compound 0.025 µg/mL	first compound 0.05 µg/mL
partner 85.5 µg/mL	0.915	0.973	0.863
partner 171 µg/mL	0.921	0.974	0.865
partner 342 µg/mL	0.898	0.884	0.87

fitness, B. subtilis 168 [1], one replicate
Conditions	first compound 0.125 µg/mL	first compound 0.25 µg/mL	first compound 0.5 µg/mL
partner 85.5 µg/mL	0.905	0.822	0.543
partner 171 µg/mL	0.856	0.821	0.562
partner 342 µg/mL	0.866	0.784	0.638

Conditions	Bliss interaction score
B. subtilis 168 [2]	0.0449
S. aureus DSM 20231	0.0431
S. aureus Newman	0.0326
S. pneumoniae D39V	-0.109

CC(=O)NC[C@H]1CN(c2ccc(N3CCOCC3)c(F)c2)C(=O)O1 [Linezolid] + CN[C@H](CC(C)C)C(=O)N[C@H]1C(=O)N[C@@H](CC(N)=O)C(=O)N[C@H]2C(=O)N[C@H]3C(=O)N[C@H](C(=O)N[C@H](C(=O)O)c4cc(O)cc(O)c4-c4cc3ccc4O)[C@H](O[C@H]3C[C@](C)(N)[C@@H](O)[C@H](C)O3)c3ccc(c(Cl)c3)Oc3cc2cc(c3O[C@@H]2O[C@H](CO)[C@@H](O)[C@H](O)[C@H]2O[C@H]2C[C@](C)(NCc3ccc(-c4ccc(Cl)cc4)cc3)[C@@H](O)[C@H](C)O2)Oc2ccc(cc2Cl)[C@H]1O [Oritavancin]
Conditions	Bliss interaction score
B. subtilis 168 [2]	0.0399
S. aureus DSM 20231	-0.0323
S. aureus Newman	-0.0463
S. pneumoniae D39V	0.0845

CO[C@@]12[C@H](COC(N)=O)C3=C(C(=O)C(C)=C(N)C3=O)N1C[C@@H]1N[C@@H]12 [MitomycinC] + COc1c(N2C[C@@H]3CCCN[C@@H]3C2)c(F)cc2c(=O)c(C(=O)O)cn(C3CC3)c12 [Moxifloxacin]
Conditions	Bliss interaction score
B. subtilis 168 [2]	0.0263
S. aureus DSM 20231	0.07
S. aureus Newman	-0.099
S. pneumoniae D39V	0.056

CC[C@H]1OC(=O)[C@H](C)[C@@H](O[C@H]2C[C@@](C)(OC)[C@@H](O)[C@H](C)O2)[C@H](C)[C@@H](O[C@@H]2O[C@H](C)C[C@H](N(C)C)[C@H]2O)[C@](C)(O)C[C@@H](C)C(=O)[C@H](C)[C@@H](O)[C@]1(C)O [Erythromycin] + Cc1ncc([N+](=O)[O-])n1CCO [Metronidazole]
Conditions	Bliss interaction score
B. subtilis 168 [2]	-0.0335
S. aureus DSM 20231	-0.0288
S. aureus Newman	-0.0396
S. pneumoniae D39V	0.0719

CC[C@H]1OC(=O)[C@H](C)[C@@H](O[C@H]2C[C@@](C)(OC)[C@@H](O)[C@H](C)O2)[C@H](C)[C@@H](O[C@@H]2O[C@H](C)C[C@H](N(C)C)[C@H]2O)[C@](C)(O)C[C@@H](C)C(=O)[C@H](C)[C@@H](O)[C@]1(C)O [Erythromycin] + CC(=O)NC[C@H]1CN(c2ccc(N3CCOCC3)c(F)c2)C(=O)O1 [Linezolid]
Conditions	Bliss interaction score
B. subtilis 168 [2]	-0.0534
S. aureus DSM 20231	-0.018
S. aureus Newman	-0.0521
S. pneumoniae D39V	0.068

CC[C@H]1OC(=O)[C@H](C)[C@@H](O[C@H]2C[C@@](C)(OC)[C@@H](O)[C@H](C)O2)[C@H](C)[C@@H](O[C@@H]2O[C@H](C)C[C@H](N(C)C)[C@H]2O)[C@](C)(O)C[C@@H](C)C(=O)[C@H](C)[C@@H](O)[C@]1(C)O [Erythromycin] + CN(N=O)C(=O)N[C@@H](C=O)[C@@H](O)[C@H](O)[C@H](O)CO [Streptozotocin]
Conditions	Bliss interaction score
B. subtilis 168 [2]	-0.0271
S. aureus DSM 20231	-0.0271
S. aureus Newman	-0.0533
S. pneumoniae D39V	-0.0459
